Where two headings read alike, the source gives them in different places.
Columns and labels:
E.coli LPS induced shock = conditions: Fig 1
Protocol: In a first experiment outbred mice were divided into groups and received treatment either with a hamster anti-murine TNF antibody TN3 19.12 or with the xanthine derivative, pentoxifylline.
Each group of animals received 60mg/kg E.coli LPS by intravenous injection into a tail vein.
Those groups of animals treated with TN3 19.12 received between 0.1 and 30mg/kg of the antibody by intravenous injection of 0.1ml of liquid into the tail vein 2 hours before LPS administration.
Those groups to be treated with pentoxifylline received between 1mg/kg and 300mg/kg intravenously five minutes prior to LPS administration.
In control experiments animals received an injection of an equivalent volume of saline.
The groups received one of three different treatment as follows: • A) Control - received 60mg/kg E.coli LPS intravenously followed by saline injection; • B) Received 1mg/kg TN3 19.12 i.v. 2 hrs prior to challenge with 60mg/kg E.coli LPS i.v. and 1mg/kg pentoxifylline i.v. 5 mins prior to challenge; • C) As B) but these mice also received repeat doses of 1mg/kg pentoxifylline 24,48 and 72 hours after LPS challenge.

[1] = tested on: Salmonella abortus equi LPS induced shock; assay: Salmonella abortus equi LPS induced shock model in galactosamine sensitised mice (inhibition of mortality); type: in vivo, C57BL mice; conditions: 100mg/kg pentoxifylline alone; Fig 5
Protocol: Similar experiments to those described above were carried out in galactosamine sensitised C57BL mice which were challenged with LPS from Salmonella abortus equi. Mortality was measured 96 hrs after the LPS challenge.

CC(=O)CCCCn1c(=O)c2c(ncn2C)n(C)c1=O [pentoxifylline, 3,7-dimethyl-1-(5-oxohexyl)xanthine]
effect on mortality (mean deaths per experiment) (E.coli LPS induced shock; pentoxifylline alone 1mg/kg i.v. five minutes prior to 60mg/kg E.coli LPS i.v.): no effect | effect on mortality (mean deaths per experiment) (E.coli LPS induced shock; pentoxifylline alone at higher doses than 1mg/kg (up to 300mg/kg) i.v. five minutes prior to LPS): accelerated mortality | protective effect (mortality) [1]: no protective effect
